Laboratory results: PubChem BioAssay (NCI)
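All cell lines were grown in 96-well plates and treated with compound for 48 hours. TGI: concentration producing complete growth inhibition.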

Experiments:
Assay in all cases: NCI anticancer screen, dose series, 48 h
786-0 renal = tested on: 786-0 renal
A498 renal = tested on: A498 renal
A549 NSCLC = tested on: A549 NSCLC
ACHN renal = tested on: ACHN renal
BT-549 breast = tested on: BT-549 breast
CAKI-1 renal = tested on: CAKI-1 renal
COLO 205 colon = tested on: COLO 205 colon
DU-145 prostate = tested on: DU-145 prostate
EKVX NSCLC = tested on: EKVX NSCLC
HCT-116 colon = tested on: HCT-116 colon
HCT-15 colon = tested on: HCT-15 colon
HL-60(TB) leukemia = tested on: HL-60(TB) leukemia
HOP-62 NSCLC = tested on: HOP-62 NSCLC
HOP-92 NSCLC = tested on: HOP-92 NSCLC
HS 578T breast = tested on: HS 578T breast
HT29 colon = tested on: HT29 colon
IGROV1 ovarian = tested on: IGROV1 ovarian
KM12 colon = tested on: KM12 colon
M14 melanoma = tested on: M14 melanoma
MALME-3M melanoma = tested on: MALME-3M melanoma
MCF7 breast = tested on: MCF7 breast
MDA-MB-231 breast = tested on: MDA-MB-231 breast
MDA-MB-435 = tested on: MDA-MB-435
MDA-N = tested on: MDA-N
MOLT-4 leukemia = tested on: MOLT-4 leukemia
NCI-H226 lung = tested on: NCI-H226 lung
NCI-H23 lung = tested on: NCI-H23 lung
NCI-H522 lung = tested on: NCI-H522 lung
NCI/ADR-RES ovarian = tested on: NCI/ADR-RES ovarian
OVCAR-3 ovarian = tested on: OVCAR-3 ovarian
OVCAR-4 ovarian = tested on: OVCAR-4 ovarian
OVCAR-5 ovarian = tested on: OVCAR-5 ovarian
OVCAR-8 ovarian = tested on: OVCAR-8 ovarian
PC-3 prostate = tested on: PC-3 prostate
RPMI-8226 leukemia = tested on: RPMI-8226 leukemia
SF-268 CNS = tested on: SF-268 CNS
SF-295 CNS = tested on: SF-295 CNS
SF-539 CNS = tested on: SF-539 CNS
SK-MEL-2 melanoma = tested on: SK-MEL-2 melanoma
SK-MEL-28 melanoma = tested on: SK-MEL-28 melanoma
SK-MEL-5 melanoma = tested on: SK-MEL-5 melanoma
SK-OV-3 ovarian = tested on: SK-OV-3 ovarian
SN12C renal = tested on: SN12C renal
SNB-19 CNS = tested on: SNB-19 CNS
SR leukemia = tested on: SR leukemia
SW-620 colon = tested on: SW-620 colon
T-47D breast = tested on: T-47D breast
U251 CNS = tested on: U251 CNS
UACC-62 melanoma = tested on: UACC-62 melanoma
UO-31 renal = tested on: UO-31 renal
CCRF-CEM leukemia = tested on: CCRF-CEM leukemia
HCC-2998 colon = tested on: HCC-2998 colon
K-562 leukemia = tested on: K-562 leukemia
LOX IMVI melanoma = tested on: LOX IMVI melanoma
RXF 393 renal = tested on: RXF 393 renal
SNB-75 CNS = tested on: SNB-75 CNS
TK-10 renal = tested on: TK-10 renal
UACC-257 melanoma = tested on: UACC-257 melanoma
NCI-H460 lung = tested on: NCI-H460 lung

Structure (SMILES): C=CCN1CCN([C@H](c2ccc(C(=O)N(CC)CC)cc2)c2cccc(OC)c2)CC1
- TGI (786-0 renal): > 25 µM
- TGI (A498 renal): > 25 µM
- TGI (A549 NSCLC): > 25 µM
- TGI (ACHN renal): > 25 µM
- TGI (BT-549 breast): > 25 µM
- TGI (CAKI-1 renal): > 25 µM
- TGI (COLO 205 colon): > 25 µM
- TGI (DU-145 prostate): > 25 µM
- TGI (EKVX NSCLC): > 25 µM
- TGI (HCT-116 colon): > 25 µM
- TGI (HCT-15 colon): > 25 µM
- TGI (HL-60(TB) leukemia): > 25 µM
- TGI (HOP-62 NSCLC): > 25 µM
- TGI (HOP-92 NSCLC): > 25 µM
- TGI (HS 578T breast): > 25 µM
- TGI (HT29 colon): > 25 µM
- TGI (IGROV1 ovarian): > 25 µM
- TGI (KM12 colon): > 25 µM
- TGI (M14 melanoma): > 25 µM
- TGI (MALME-3M melanoma): > 25 µM
- TGI (MCF7 breast): > 25 µM
- TGI (MDA-MB-231 breast): > 25 µM
- TGI (MDA-MB-435): > 25 µM
- TGI (MDA-N): > 25 µM
- TGI (MOLT-4 leukemia): > 25 µM
- TGI (NCI-H226 lung): > 25 µM
- TGI (NCI-H23 lung): > 25 µM
- TGI (NCI-H522 lung): > 25 µM
- TGI (NCI/ADR-RES ovarian): > 25 µM
- TGI (OVCAR-3 ovarian): > 25 µM
- TGI (OVCAR-4 ovarian): > 25 µM
- TGI (OVCAR-5 ovarian): > 25 µM
- TGI (OVCAR-8 ovarian): > 25 µM
- TGI (PC-3 prostate): > 25 µM
- TGI (RPMI-8226 leukemia): > 25 µM
- TGI (SF-268 CNS): > 25 µM
- TGI (SF-295 CNS): > 25 µM
- TGI (SF-539 CNS): > 25 µM
- TGI (SK-MEL-2 melanoma): > 25 µM
- TGI (SK-MEL-28 melanoma): > 25 µM
- TGI (SK-MEL-5 melanoma): > 25 µM
- TGI (SK-OV-3 ovarian): > 25 µM
- TGI (SN12C renal): > 25 µM
- TGI (SNB-19 CNS): > 25 µM
- TGI (SR leukemia): > 25 µM
- TGI (SW-620 colon): > 25 µM
- TGI (T-47D breast): > 25 µM
- TGI (U251 CNS): > 25 µM
- TGI (UACC-62 melanoma): > 25 µM
- TGI (UO-31 renal): > 25 µM

Structure (SMILES): CC1=CC(C)(C)[C@H]2O[C@@]3(O)C[C@]4(C)[C@H]5C[C@@](C(C)C)(O[C@H]4c4ccoc4)O[C@H]4[C@]5(C3)O[C@@]1(O)[C@]24O
- TGI (786-0 renal): > 100 µM
- TGI (A549 NSCLC): > 100 µM
- TGI (ACHN renal): > 100 µM
- TGI (BT-549 breast): > 100 µM
- TGI (CAKI-1 renal): > 100 µM
- TGI (CCRF-CEM leukemia): > 100 µM
- TGI (COLO 205 colon): > 100 µM
- TGI (DU-145 prostate): > 100 µM
- TGI (EKVX NSCLC): > 100 µM
- TGI (HCC-2998 colon): > 100 µM
- TGI (HCT-116 colon): > 100 µM
- TGI (HCT-15 colon): > 100 µM
- TGI (HL-60(TB) leukemia): > 100 µM
- TGI (HOP-62 NSCLC): 82 µM
- TGI (HOP-92 NSCLC): > 100 µM
- TGI (HS 578T breast): > 100 µM
- TGI (HT29 colon): > 100 µM
- TGI (IGROV1 ovarian): > 100 µM
- TGI (K-562 leukemia): > 100 µM
- TGI (KM12 colon): > 100 µM
- TGI (LOX IMVI melanoma): > 100 µM
- TGI (M14 melanoma): > 100 µM
- TGI (MALME-3M melanoma): > 100 µM
- TGI (MCF7 breast): > 100 µM
- TGI (MDA-MB-231 breast): > 100 µM
- TGI (MDA-MB-435): > 100 µM
- TGI (MDA-N): > 100 µM
- TGI (MOLT-4 leukemia): > 100 µM
- TGI (NCI-H226 lung): > 100 µM
- TGI (NCI-H23 lung): > 100 µM
- TGI (NCI-H522 lung): 45.8 µM
- TGI (NCI/ADR-RES ovarian): > 100 µM
- TGI (OVCAR-3 ovarian): > 100 µM
- TGI (OVCAR-4 ovarian): > 100 µM
- TGI (OVCAR-5 ovarian): > 100 µM
- TGI (OVCAR-8 ovarian): > 100 µM
- TGI (PC-3 prostate): > 100 µM
- TGI (RPMI-8226 leukemia): > 100 µM
- TGI (RXF 393 renal): > 100 µM
- TGI (SF-268 CNS): > 100 µM
- TGI (SF-295 CNS): > 100 µM
- TGI (SF-539 CNS): > 100 µM
- TGI (SK-MEL-2 melanoma): > 100 µM
- TGI (SK-MEL-28 melanoma): > 100 µM
- TGI (SK-MEL-5 melanoma): > 100 µM
- TGI (SK-OV-3 ovarian): > 100 µM
- TGI (SN12C renal): > 100 µM
- TGI (SNB-19 CNS): > 100 µM
- TGI (SNB-75 CNS): 64.6 µM
- TGI (SR leukemia): > 100 µM
- TGI (SW-620 colon): > 100 µM
- TGI (T-47D breast): > 100 µM
- TGI (TK-10 renal): > 100 µM
- TGI (U251 CNS): > 100 µM
- TGI (UACC-257 melanoma): > 100 µM
- TGI (UACC-62 melanoma): > 100 µM
- TGI (UO-31 renal): > 100 µM

Structure (SMILES): c1coc(C2=Nc3cccc4cccc(c34)N2)c1
- TGI (786-0 renal): > 100 µM
- TGI (A549 NSCLC): > 100 µM
- TGI (ACHN renal): 57.6 µM
- TGI (BT-549 breast): > 100 µM
- TGI (CAKI-1 renal): > 100 µM
- TGI (CCRF-CEM leukemia): > 100 µM
- TGI (COLO 205 colon): 28 µM
- TGI (DU-145 prostate): > 100 µM
- TGI (EKVX NSCLC): > 100 µM
- TGI (HCC-2998 colon): > 100 µM
- TGI (HCT-116 colon): 56.3 µM
- TGI (HCT-15 colon): > 100 µM
- TGI (HL-60(TB) leukemia): 65.4 µM
- TGI (HOP-62 NSCLC): > 100 µM
- TGI (HOP-92 NSCLC): 60.5 µM
- TGI (HS 578T breast): > 100 µM
- TGI (HT29 colon): 57.3 µM
- TGI (IGROV1 ovarian): > 100 µM
- TGI (K-562 leukemia): > 100 µM
- TGI (KM12 colon): 40.8 µM
- TGI (LOX IMVI melanoma): > 100 µM
- TGI (M14 melanoma): > 100 µM
- TGI (MALME-3M melanoma): > 100 µM
- TGI (MCF7 breast): > 100 µM
- TGI (MDA-MB-231 breast): > 100 µM
- TGI (MDA-MB-435): > 100 µM
- TGI (MDA-N): > 100 µM
- TGI (MOLT-4 leukemia): > 100 µM
- TGI (NCI-H226 lung): > 100 µM
- TGI (NCI-H23 lung): > 100 µM
- TGI (NCI-H460 lung): > 100 µM
- TGI (NCI-H522 lung): 23.2 µM
- TGI (NCI/ADR-RES ovarian): 44.4 µM
- TGI (OVCAR-3 ovarian): 65.4 µM
- TGI (OVCAR-4 ovarian): 84.9 µM
- TGI (OVCAR-8 ovarian): > 100 µM
- TGI (PC-3 prostate): 80.8 µM
- TGI (RPMI-8226 leukemia): > 100 µM
- TGI (RXF 393 renal): 76.9 µM
- TGI (SF-268 CNS): > 100 µM
- TGI (SF-295 CNS): > 100 µM
- TGI (SF-539 CNS): 39.3 µM
- TGI (SK-MEL-2 melanoma): > 100 µM
- TGI (SK-MEL-28 melanoma): > 100 µM
- TGI (SK-MEL-5 melanoma): > 100 µM
- TGI (SK-OV-3 ovarian): > 100 µM
- TGI (SN12C renal): > 100 µM
- TGI (SNB-19 CNS): > 100 µM
- TGI (SNB-75 CNS): > 100 µM
- TGI (SR leukemia): > 100 µM
- TGI (SW-620 colon): > 100 µM
- TGI (T-47D breast): 23 µM
- TGI (TK-10 renal): > 100 µM
- TGI (U251 CNS): > 100 µM
- TGI (UACC-257 melanoma): > 100 µM
- TGI (UACC-62 melanoma): > 100 µM
- TGI (UO-31 renal): 64.7 µM
